Test results published in patent US20170362228A1, “TETRAHYDRO-PYRIDO[3,4-b]INDOLE ESTROGEN RECEPTOR MODULATORS AND USES THEREOF” (Genentech, Inc., priority 2016, published 2017).
Read-outs that look alike come from different tables or passages of the source.

Key:
[1] = target: T1, estrogen receptor alpha (ESR1) (Homo sapiens, UniProt P03372); assay: Breast Cancer Cell ERa High Content Fluorescence Imaging Degradation Assay (Example 901); assay type: cell-based; conditions: MCF7 breast cancer cells, 4 hours, plateau of the maximal effect
T1 construct: endogenous in cells; host or cells: MCF7 breast cancer cells
T1 sequence (P03372 1-595): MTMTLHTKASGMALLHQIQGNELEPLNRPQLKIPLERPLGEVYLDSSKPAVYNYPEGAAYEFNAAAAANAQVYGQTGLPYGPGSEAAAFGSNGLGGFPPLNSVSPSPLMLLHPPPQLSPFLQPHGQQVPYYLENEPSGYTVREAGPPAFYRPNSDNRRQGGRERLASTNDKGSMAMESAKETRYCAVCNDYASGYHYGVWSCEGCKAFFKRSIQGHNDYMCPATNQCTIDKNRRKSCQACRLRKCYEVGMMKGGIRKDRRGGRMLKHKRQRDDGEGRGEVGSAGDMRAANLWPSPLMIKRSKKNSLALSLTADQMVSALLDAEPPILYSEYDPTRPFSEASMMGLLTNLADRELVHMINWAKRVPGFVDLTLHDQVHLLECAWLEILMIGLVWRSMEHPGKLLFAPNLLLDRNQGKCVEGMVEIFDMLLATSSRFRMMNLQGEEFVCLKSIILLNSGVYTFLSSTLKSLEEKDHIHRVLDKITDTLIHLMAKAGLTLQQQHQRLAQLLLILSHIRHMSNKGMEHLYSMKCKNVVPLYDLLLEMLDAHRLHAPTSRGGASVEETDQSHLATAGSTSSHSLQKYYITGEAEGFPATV
Description: MCF7 breast cancer cells were seeded on day 1 at a density of 10,000 cells per well in 384 well poly-lysine coated tissue culture plate (Greiner # T-3101-4), in 50 μL/well RPMI (phenol red free), 10% FBS (Charcoal stripped), containing L-glutamine. On day 2, compounds were prepared at 2 compound source concentrations: 100 μM and 1 μM (ultimately to give 2 overlapping titration curves), in a Labcyte low dead volume plate, 10 μL/well, and 10 μL of DMSO in designated wells for backfill, and 5 μM Fulvestrant (control compound) in designated wells. Compounds and controls were dispensed using a Labcyte Echo acoustic dispenser to dispense compounds with a predefined serial dilution (1.8×, 10 point, in duplicate) and appropriate backfill and control compounds (final total volume transferred was 417.5 nL and compound dispense volume ranges from 2.5 nL to 417.5 nL; 0.84% DMSO (v/v) final), ultimately producing a concentration range from 0.05 nM to 835 nM. Cell plates were incubated at 37° C., for 4 hours. Fixation and permeabilization were carried out using a Biotek EL406 plate washer and dispenser as follows. Cells were fixed by addition of 15 μL of 16% paraformaldehyde (Electron Microscopy Sciences #15710-S) directly to the 50 μL cell culture medium in each well using the peristaltic pump 5 μL cassette on a Biotek EL406 (final concentration of formaldehyde was 3.7% w/v). Samples were incubated 30 minutes. Well contents was aspirated and 50 μL/well of Phosphate Buffered Saline (PBS) containing 0.5% w/v bovine serum albumen, 0.5% v/v Triton X-100 (Antibody Dilution Buffer) was added to each well. Samples were incubated for 30 minutes. Well contents were aspirated and washed 3 times with 100 μL/well of PBS. Immunofluorescence staining of estrogen receptor alpha (ESR1) was carried out using a Biotek EL406 plate washer and dispenser as follows. The well supernatant was aspirated from the wells and 25 μL/well of anti-ESR1 mAb (F10) (Santa Cruz sc-8002) diluted 1:1000 in Antibody Dilution Buffer was dispensed. Samples were incubated for 2 hours at room temperature. Samples were washed 4 times with 100 μL/well of PBS. 25 uL/well of secondary antibody solution (Alexafluor 488 conjugate anti-mouse IgG (LifeTechnologies #A21202) diluted 1:1000 and Hoechst 33342 1 μg/ml diluted in Antibody Dilution Buffer) were dispensed into each well. Samples were incubated for 2 hours at room temperature. Samples were washed 3 times with 100 μL/well of PBS using a Biotek EL406. Quantitative fluorescence imaging of ESR1 was carried out using a Cellomics Arrayscan V (Thermo). Fluorescence images of the samples (Channel 1: XF53 Hoechst (DNA stain); Channel 2: XF53 FITC (ESR1 stain)) were acquired using a Cellomics VTI Arrayscan using the Bioapplication “Compartmental Analysis” using the auto-exposure (based on DMSO control wells) setting “peak target percentile” set to 25% target saturation for both channels. Channel 1 (DNA stain) was used to define the nuclear region (Circ). Measurements of “Mean_CircAvgIntCh2”, which is the Alexafluor 488 fluorescence intensity (ESR1) within the nuclear region, was measured on a per cell basis and averaged over all the measured cells. Data analysis was carried out using Genedata Screener Software, with DMSO and 5 nM Fulvestrant treated samples being used to define the 0% and 100% changes in ESR1. The “Robust Fit” method was used to define the inflexion point of curve (EC50) and the plateau of the maximal effect (Sinf). Degradation data for exemplary Formula I compounds is reported as ER-alpha MCF7 HCS Sinf(%) values in Table 1.

MCF7 cells = assay: In vitro cell proliferation assays (Examples 902 and 903), MCF7; assay type: cell-based; conditions: read-out: ER-alpha MCF7 HCS (EC50)
Description: Efficacy of estrogen receptor modulator compounds and chemotherapeutic compounds are measured by a cell proliferation assay employing the following protocol (Mendoza et al (2002) Cancer Res. 62:5485-5488).
The CellTiter-Glo® Luminescent Cell Viability Assay is a homogeneous method to determine the number of viable cells in culture based on quantitation of the ATP present, which signals the presence of metabolically active cells. The CellTiter-Glo® Assay is designed for use with multiwell plate formats, making it ideal for automated high-throughput screening (HTS), cell proliferation and cytotoxicity assays. The homogeneous assay procedure involves adding a single reagent (CellTiter-Glo® Reagent) directly to cells cultured in serum-supplemented medium. Cell washing, removal of medium or multiple pipetting steps are not required. The Cell Titer-Glo® Luminescent Cell Viability Assay, including reagents and protocol are commercially available (Promega Corp., Madison, Wis., Technical Bulletin TB288).
The assay assesses the ability of compounds to enter cells and inhibit cell proliferation. The assay principle is based on the determination of the number of viable cells present by quantitating the ATP present in a homogenous assay where addition of the Cell TiterGlo® reagent results in cell lysis and generation of a luminescent signal through the luciferase reaction. The luminescent signal is proportional to the amount of ATP present.
Procedure: Day 1—Seed Cell Plates (384-well black, clear bottom, microclear, TC plates with lid from Falcon #353962), Harvest cells, Seed cells at 1000 cells per 54 μl per well into 384 well Cell Plates for 3 days assay. Cell Culture Medium: RPMI or DMEM high glucose, 10% Fetal Bovine Serum, 2 mM L-Glutamine, P/S. Incubate 0/N (overnight) at 37° C., 5% CO2.
Day 2—Add Drug to Cells, Compound Dilution, DMSO Plates (serial 1:2 for 9 points). Add 20 μl of compound at 10 mM in the 2nd column of 96 well plate. Perform serial 1:2 across the plate (10 μl+20 μl 100% DMSO) for a total of 9 points using Precision Media Plates 96-well conical bottom polypropylene plates from Nunc (cat.#249946) (1:50 dilution). Add 147 μl of Media into all wells. Transfer 3 μl of DMSO+compound from each well in the DMSO Plate to each corresponding well on Media Plate using Rapidplate® (Caliper, a Perkin-Elmer Co.). For 2 drug combination studies, transfer one drug 1.5 μl of DMSO+compound from each well in the DMSO Plate to each corresponding well on Media Plate using Rapidplate. Then, transfer another drug 1.5 μl to the medium plate.
Drug Addition to Cells, Cell Plate (1:10 dilution): Add 6 μl of media+compound directly to cells (54 μl of media on the cells already). Incubate 3 days at 37° C., 5% CO2 in an incubator that will not be opened often.
Day 5—Develop Plates, Thaw Cell Titer Glo Buffer at room temperature: Remove Cell Plates from 37° C. and equilibrate to room temperature for about 30 minutes. Add Cell Titer-Glo® Buffer to Cell Titer-Glo® Substrate (bottle to bottle). Add 30 μl Cell Titer-Glo® Reagent (Promega cat.# G7572) to each well of cells. Place on plate shaker for about 30 minutes. Read luminescence on Analyst HT Plate Reader (half second per well).
Cell viability assays and combination assays: Cells were seeded at 1000-2000 cells/well in 384-well plates for 16 h. On day two, nine serial 1:2 compound dilutions were made in DMSO in a 96 well plate. The compounds were further diluted into growth media using a Rapidplate® robot (Zymark Corp., Hopkinton, Mass.). The diluted compounds were then added to quadruplicate wells in 384-well cell plates and incubated at 37° C. and 5% CO2. After 4 days, relative numbers of viable cells were measured by luminescence using Cell Titer-Glo® (Promega) according to the manufacturer's instructions and read on a Wallac Multilabel Reader® (PerkinElmer, Foster City). EC50 values were calculated using Prism® 4.0 software (GraphPad, San Diego). […]

[2] = Table 1a, DMSO and Fulvestrant define 0% and 100% changes in ESR1

Compound | ER-alpha MCF7 HCS (S inf) [1, 2] [%] | EC50 (MCF7 cells; Homo sapiens, MCF7, Table 1a) [nM] | ER-alpha MCF7 HCS (S inf) ([1]; Table 1b) [%] | EC50 (MCF7 cells; Homo sapiens, MCF7, Table 1b) [nM] | EC50 (MCF7 cells; Table 1b) [nM]
C[C@@H]1Cc2c([nH]c3c(F)cccc23)[C@@H](c2c(F)cc([C@H](O)C3CN(CCCF)C3)cc2F)N1CC(F)(F)CO (single isomer, unassigned) [Compound 133] | −95.88 | 0.083 | – | – | –
C[C@@H]1Cc2c([nH]c3c(F)cccc23)[C@@H](c2c(F)cc([C@@H](O)C3CN(CCCF)C3)cc2F)N1CC(F)(F)CO (single isomer, unassigned) [Compound 134] | −94.44 | 0.137 | – | – | –
C[C@@H]1Cc2c([nH]c3ccccc23)[C@@H](c2c(F)cc([C@@H](O)C3CN(CCCF)C3)cc2F)N1CC(F)(F)CO (single isomer, unassigned) [Compound 135] | −99.46 | 0.039 | – | – | –
C[C@@H]1Cc2c([nH]c3ccccc23)[C@@H](c2c(F)cc([C@H](O)C3CN(CCCF)C3)cc2F)N1CC(F)(F)CO (single isomer, unassigned) [Compound 136] | −99.81 | 0.066 | – | – | –
C[C@@H]1Cc2c([nH]c3ccccc23)[C@@H](c2c(F)cc([C@H](O)C3CN(CCCF)C3)cc2F)N1C[C@@H](F)CO (single isomer, unassigned) [Compound 137] | −100.96 | 0.074 | – | – | –
C[C@@H]1Cc2c([nH]c3ccccc23)[C@@H](c2c(F)cc([C@@H](O)C3CN(CCCF)C3)cc2F)N1C[C@@H](F)CO (single isomer, unassigned) [Compound 138] | −97.67 | 0.276 | – | – | –
C[C@@H]1Cc2c([nH]c3ccccc23)[C@@H](c2c(F)cc([C@H](O)C3CN(CCCF)C3)cc2F)N1C[C@H](F)CO (single isomer, unassigned) [Compound 140] | −95.81 | 0.989 | – | – | –
C[C@@H]1Cc2c([nH]c3cc(F)ccc23)[C@@H](c2c(F)cc([C@H](O)C3CN(CCCF)C3)cc2F)N1CC(F)(F)CO (single isomer, unassigned) [Compound 142] | −100 | 0.065 | – | – | –
C[C@@H]1Cc2c([nH]c3ccccc23)[C@@H](c2c(F)cc([C@H](F)C3CN(CCCF)C3)cc2F)N1C[C@@H](F)CO (single isomer, unassigned) [Compound 156] | – | – | −102 | 0.055 | –
C[C@@H]1Cc2c([nH]c3ccccc23)[C@@H](c2c(F)cc([C@@H](F)C3CN(CCCF)C3)cc2F)N1C[C@@H](F)CO (single isomer, unassigned) [Compound 157] | – | – | −100 | 0.078 | –
C[C@@H]1Cc2c([nH]c3ccccc23)[C@@H](c2c(F)cc([C@@H](O)C3CN(CCCF)C3)cc2F)N1CC(F)CF (stereo in doubt) [Compound 160, (S)-(4-((1R,3R)-2-((R)-2,3-difluoropropyl)-3-methyl-2,3,4,9-tetrahydro-1H-pyrido[3,4-b]indol-1-yl)-3,5-difluorophenyl)(1-(3-fluoropropyl)azetidin-3-yl)methanol] | – | – | −101 | – | 0.032
C[C@@H]1Cc2c([nH]c3ccccc23)[C@@H](c2c(F)cc([C@H](F)C3CN(CCCF)C3)cc2F)N1CC(C)(C)F [Compound 103, (1R,3R)-1-(2,6-difluoro-4-((R)-fluoro(1-(3-fluoropropyl)azetidin-3-yl)methyl)phenyl)-2-(2-fluoro-2-methylpropyl)-3-methyl-2,3,4,9-tetrahydro-1H-pyrido[3,4-b]indole] | −94.25 | 0.12 | – | – | –
C[C@@H]1Cc2c([nH]c3ccccc23)[C@@H](c2c(F)cc(C(O)C3CN(CCCF)C3)cc2F)N1CC(F)(F)CO (stereo partly drawn) [Compound 106, 3-((1R,3R)-1-(2,6-difluoro-4-((1-(3-fluoropropyl)azetidin-3-yl)(hydroxy)methyl)phenyl)-3-methyl-1,3,4,9-tetrahydro-2H-pyrido[3,4-b]indol-2-yl)-2,2-difluoropropan-1-ol] | −98.3 | 0.035 | – | – | –
